Values quoted from earlier work as cited in patent US6348490B1, “Dosage forms containing thioctic acid or solid salts of thioctic acid with improved release and bioavailability” (Asta Medica Aktiengesellschaft, priority 1994, dated 2002).

Experiments:
[1] = factor versus racemate
[2] = factor versus racemate; remark: listed apart in the source

Compound	anti-nociceptive (analgesic) action, factor stronger than that of the racemate [1]	anti-inflammatory action, factor stronger than that of the racemate [2]
O=C(O)CCCC[C@H]1CCSS1 (single isomer, unassigned) [S-enantiomer, S-thioctic acid]	6	
O=C(O)CCCC[C@@H]1CCSS1 [R-Thioctic acid, R-thioctic acid]		10
